Patent US8309721B2, “HSP90 inhibitory carbazole derivatives, compositions containing same and use thereof” (Sanofi, priority 2008, dated 2012)
Structures can show the parent of a compound that is named as a salt. Where two headings read alike, the source gives them in different places.

Assays:
[1] = tested on: Her2 receptor expression at the surface of SKBr3 cells; assay: phenotypic SKBr3/HER2 cell test (Her2 surface expression by flow cytometry); format: cell-based; details: Homo sapiens, SK-BR-3, 24 h incubation, inhibition of Her2 expression
How it was run: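 SKBr3 cells (Her2-overexpressing adenocarcinoma) treated 24 h with compound at varying concentrations, then stained with PE-anti-Her2 antibody 30 min at 4° C; surface Her2 measured by flow cytometry. IC50 from nonlinear fit of % inhibition of Her2 expression versus concentration.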

[2] = biological target: Hsp82 (Saccharomyces cerevisiae, UniProt P02829); assay: Hsp82/ATPase test (malachite green or PK/LDH coupled method); format: biochemical
Hsp82, sequence (P02829 whole entry): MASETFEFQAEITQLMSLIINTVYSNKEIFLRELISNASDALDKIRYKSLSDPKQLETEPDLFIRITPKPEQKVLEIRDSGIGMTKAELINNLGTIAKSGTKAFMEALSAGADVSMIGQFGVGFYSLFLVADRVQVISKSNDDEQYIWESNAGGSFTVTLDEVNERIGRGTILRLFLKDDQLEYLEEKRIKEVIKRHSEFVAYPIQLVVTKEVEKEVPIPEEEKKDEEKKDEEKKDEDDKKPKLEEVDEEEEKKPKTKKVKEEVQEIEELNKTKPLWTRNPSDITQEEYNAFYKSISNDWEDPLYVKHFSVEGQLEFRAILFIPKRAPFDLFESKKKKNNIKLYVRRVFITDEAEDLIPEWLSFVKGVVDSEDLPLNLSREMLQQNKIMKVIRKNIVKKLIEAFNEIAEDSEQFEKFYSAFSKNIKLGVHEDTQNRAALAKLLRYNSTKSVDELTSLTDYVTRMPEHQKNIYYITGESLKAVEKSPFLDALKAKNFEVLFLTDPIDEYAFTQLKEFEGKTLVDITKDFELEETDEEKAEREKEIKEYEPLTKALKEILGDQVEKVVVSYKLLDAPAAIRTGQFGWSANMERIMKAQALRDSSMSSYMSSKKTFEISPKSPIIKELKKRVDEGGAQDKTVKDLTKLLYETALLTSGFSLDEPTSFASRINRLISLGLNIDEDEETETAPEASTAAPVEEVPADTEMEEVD
Description: The biochemical activity of the compounds can in particular be evaluated by means of the “Hsp82/ATPase” test described below: The inorganic phosphate released during the hydrolysis of ATP by the ATPase activity of Hsp82 is quantified by the malachite green method. In the presence of this reagent, formation of the inorganic phosphate-molybdate-malachite green complex, which absorbs at a wavelength of 620 nm, occurs. The products to be evaluated are incubated in a reaction volume of 30 μl, in the presence of 1 μM Hsp82 and of 250 μM of substrate (ATP) in a buffer composed of 50 mM Hepes-NaOH (pH 7.5), 1 mM DTT, 5 mM MgCl2 and 50 mM KCl at 37° C. for 60 min. In parallel, an inorganic phosphate range of between 1 and 40 μM is made up in the same buffer. […] After incubation at ambient temperature for 20 min, the absorbance of the various wells is measured using a microplate reader at 620 nm. The inorganic phosphate concentration of each sample is then calculated from the standard curve. The ATPase activity of Hsp82 is expressed as concentration of inorganic phosphate produced in 60 minutes. The effect of the various products tested is expressed as percentage inhibition of the ATPase activity. The formation of ADP due to the ATPase activity of Hsp82 was used to develop another method for evaluating the enzyme activity of this enzyme by application of an enzymatic coupling system involving pyruvate kinase (PK) and lactate dehydrogenase (LDH). In this kinetic-type spectrophotometric method, PK catalyses the formation of ATP and of pyruvate from phosphoenol pyruvate (PEP) and the ADP produced by Hsp82. The pyruvate formed, which is a substrate for LDH, is subsequently converted to lactate in the presence of NADH. In this case, the decrease in the NADH concentration, measured through the decrease in absorbance at the wavelength of 340 nm, is proportional to the concentration of ADP produced by Hsp82. The products tested are incubated in a reaction volume of 100 μl of buffer composed of 100 mM Hepes-NaOH (pH 7.5), 5 mM MgCl2, 1 mM DTT, 150 mM KCl, 0.3 mM NADH, 2.5 mM PEP and 250 μM ATP. This mixture is preincubated at 37° C. for 30 minutes before the addition of 3.77 units of LDH and 3.77 units of PK. The reaction is initiated by addition of the product to be evaluated, in varying concentrations, and of Hsp82, at the concentration of 1 μM. The enzymatic activity of Hsp82 is then measured continuously, in a microplate reader, at 37° C., at the wavelength of 340 nm. The initial rate of the reaction is obtained by measuring the slope of the tangent to the origin of the curve recorded. The enzymatic activity is expressed in μM of ADP formed per minute. The effect of the various products tested is expressed as percentage inhibition of the ATPase activity according to the codification below: […]

[3] = 1 μM Hsp82, 250 μM ATP, 37° C., read-out: Hsp82 ATPase IC50

Row | SMILES | melting point [°C] | IC50 [1] [nM] | IC50 [2, 3] [nM] | IC50 [2] [nM]
1 | NC(=O)c1ccc(-c2cccc3c2c2ccccc2n3-c2ccc(C(N)=O)c(N[C@H]3CC[C@H](O)CC3)c2)cn1 [Example 28, 5-(9-{4-carbamoyl-3-[(4-trans-hydroxycyclohexyl)amino]phenyl}-9H-carbazol-4-yl)pyridine-2-carboxamide] | > 260 | < 1000 | 1000 to 10000 | 
2 | C[C@H](N)C(=O)O[C@H]1CC[C@H](Nc2cc(-n3c4ccccc4c4c(-c5nc6ccc(F)cc6[nH]5)cccc43)ccc2C(N)=O)CC1 [Example 26, trifluoroacetate of the 4-trans-{2-carbamoyl-5-[4-(6-fluoro-1H-benzimidazol-2-yl)-9H-carbazol-9-yl]phenylamino}cyclohexyl ester of 2(S)-aminopropionic acid] |  | < 1000 | < 1000 | 
3 | CN1C2CCC1CC(Nc1cc(-n3c4ccccc4c4c(-c5cnc6ccccc6c5)cccc43)ccc1C(N)=O)C2 (stereo not drawn) [Example 138, 2-(8-methyl-8-azabicyclo[3.2.1]oct-3-yl)amino-4-[4-(quinolin-3-yl)-9H-carbazol-9-yl]benzamide] |  | < 1000 |  | < 1000
4 | CC(O)CCNc1cc(-n2c3ccccc3c3c(-c4nc5ccc(F)cc5[nH]4)cccc32)ccc1C(N)=O (racemic) [Example 37, 4-[4-(6-fluoro-1H-benzimidazol-2-yl)-9H-carbazol-9-yl]-2-[3(R,S)hydroxybutylamino)benzamide] |  | < 1000 | < 1000 | 
5 | COCCCNc1cc(-n2c3ccccc3c3c(-c4cnc5ccccc5c4)cccc32)ccc1C(N)=O [Example 33, 2-(3-methoxypropyl)amino-4-[4-(quinolin-3-yl)-9H-carbazol-9-yl]benzamide] |  | < 1000 | < 1000 | 
6 | CC(O)CCNc1cc(-n2c3ccccc3c3c(-c4cnc5ccccc5c4)cccc32)ccc1C(N)=O (stereo not drawn) [Example 32, 2-(3-hydroxybutyl)amino-4-[4-(quinolin-3-yl)-9H-carbazol-9-yl]benzamide] |  | < 1000 | < 1000 | 
7 | NCC(=O)O[C@H]1CC[C@H](Nc2cc(-n3c4ccccc4c4c(-c5nc6ccc(F)cc6[nH]5)cccc43)ccc2C(N)=O)CC1 [Example 25, trifluoroacetate of the 4-trans-{2-carbamoyl-5-[4-(6-fluoro-1H-benzimidazol-2-yl)-9H-carbazol-9-yl]phenylamino}cyclohexyl ester of aminoacetic acid] |  | < 1000 | 1000 to 10000 | 
8 | NCCC(=O)O[C@H]1CC[C@H](Nc2cc(-n3c4ccccc4c4c(-c5nc6ccc(F)cc6[nH]5)cccc43)ccc2C(N)=O)CC1 [Example 24, trifluoroacetate of the 4-trans-{2-carbamoyl-5-[4-(6-fluoro-1H-benzimidazol-2-yl)-9H-carbazol-9-yl]phenylamino}cyclohexyl ester of 3-aminopropionic acid] |  | < 1000 | 1000 to 10000 | 
9 | NC(=O)c1ccc(-n2c3ccccc3c3c(-c4cnc5ccccc5c4)cccc32)cc1NCCCO [Example 31, 2-(3-hydroxypropyl)amino-4-[4-(quinolin-3-yl)-9H-carbazol-9-yl]benzamide] |  | < 1000 | < 1000 | 
10 | NC(=O)c1ccc(-n2c3ccccc3c3c(-c4cnc(N)nc4)cccc32)cc1N[C@H]1CC[C@H](O)CC1 [Example 55, 4-[4-(2-aminopyrimidin-5-yl)-9H-carbazol-9-yl]-2-[(4-trans-hydroxycyclohexyl)amino]benzamide hydrochloride] |  | < 1000 | < 1000 | 

Second part, led by results:

Row | melting point [°C] | IC50 [1] [nM] | IC50 [2, 3] [nM] | SMILES | IC50 [2] [nM]
11 | 204 | < 1000 |  | N#Cc1ccc(-c2cccc3c2c2ccccc2n3-c2ccc(C(N)=O)c(NCCCO)c2)cn1 [Example 112, 4-[4-(6-cyanopyridin-3-yl)-9H-carbazol-9-yl]-2-[(3-hydroxypropyl)amino]benzamide] | 
12 | 180 | 1000 to 10000 | 1000 to 10000 | NC(=O)c1ccc(-n2c3ccccc3c3c(-c4ccc(C(F)(F)F)nc4)cccc32)cc1NCCCO [Example 69, 2-[(3-hydroxypropyl)amino]-4-{4-[6-(trifluoromethyl)pyridin-3-yl]-9H-carbazol-9-yl}benzamide] | 
13 | 274 | < 1000 | < 1000 | N#Cc1ccc(-c2cccc3c2c2ccccc2n3-c2ccc(C(N)=O)c(N[C@H]3CC[C@H](O)CC3)c2)cn1 [Example 49, 4-[4-(6-cyanopyridin-3-yl)-9H-carbazol-9-yl]-2-[(4-trans-hydroxycyclohexyl)amino]benzamide] | 
14 | 256 | < 1000 |  | N#Cc1ccc(-c2cccc3c2c2ccccc2n3-c2ccc(C(N)=O)c(NC3CCOCC3)c2)cn1 [Example 126, 4-[4-(6-cyanopyridin-3-yl)-9H-carbazol-9-yl]-2-(tetrahydro-2H-pyran-4-ylamino)benzamide] | 
15 | 198 | 1000 to 10000 | < 1000 | COc1cncc(-c2cccc3c2c2ccccc2n3-c2ccc(C(N)=O)c(NCCCO)c2)c1 [Example 66, 2-[(3-hydroxypropyl)amino]-4-[4-(5-methoxypyridin-3-yl)-9H-carbazol-9-yl]benzamide] | 
16 | 263 | < 1000 | < 1000 | COc1cncc(-c2cccc3c2c2ccccc2n3-c2ccc(C(N)=O)c(N[C@H]3CC[C@H](O)CC3)c2)c1 [Example 27, 2-[(4-trans-hydroxycyclohexyl)amino]-4-[4-(5-methoxypyridin-3-yl)-9H-carbazol-9-yl]benzamide] | 
17 |  | < 1000 | 1000 to 10000 | NC(=O)c1ccc(-n2c3ccccc3c3c(-c4nc5ccc(F)cc5[nH]4)cccc32)cc1NCc1ccoc1 [Example 50, 4-[4-(6-fluoro-1H-benzimidazol-2-yl)-9H-carbazol-9-yl]-2-[(furan-3-ylmethyl)amino]benzamide] | 
18 |  | < 1000 | < 1000 | NC(=O)c1ncc(-n2c3ccccc3c3c(-c4cnc5ccccc5c4)cccc32)cc1N[C@H]1CC[C@H](O)CC1 [Example 58, 3-(4-trans-hydroxycyclohexylamino)-5-[(4-quinolin-3-yl)-9H-carbazol-9-yl]pyridine-2-carboxamide] | 
19 | 168 | 1000 to 10000 | 1000 to 10000 | NC(=O)c1ccc(-n2c3ccccc3c3c(-c4cncc(OCc5ccccc5)c4)cccc32)cc1NCCCO [Example 68, 4-{4-[5-(benzyloxy)pyridin-3-yl]-9H-carbazol-9-yl}-2-[(3-hydroxypropyl)amino]benzamide] | 
20 |  | < 1000 | < 1000 | NC(=O)c1ccc(-n2c3ccccc3c3c(-c4nc5ccc(F)cc5[nH]4)cccc32)cc1NC1CCOCC1 [Example 59, 4-[4-(6-fluoro-1H-benzimidazol-2-yl)-9H-carbazol-9-yl]-2-(tetrahydropyran-4-ylamino)benzamide] | 
21 |  | < 1000 | < 1000 | NC(=O)c1ccc(-n2c3ccccc3c3c(-c4nc5ccncc5[nH]4)cccc32)cc1N[C@H]1CC[C@H](O)CC1 [Example 4, 2-(4-trans-hydroxycyclohexylamino)-4-[4-(3H-imidazo[4,5-c]pyridin-2-yl)-9H-carbazol-9-yl]benzamide] | 
